The data set relates to tyrosinase mRNA. In words: Tyrosinase mRNA expression by real-time PCR after transfection of WM115 cells with miR-125b inhibitor. The data set is classed as cell-based, human. The conditions noted are these: melanoma cell line WM115, 75 uM transfected using liposome, about 60 hours, compared to Comparative Examples 1 and 2. On the procedure: The present inventors used an inhibitor of […] to perform a loss-of-function study of miR-125b, in which the inhibitor of miR-125b is an oligonucleotide having a sequence complementary to that of miR-125b and can bind to miR-125b in cells to inhibit the function of the miR-125b.
75 uM of an inhibitor of miR-125b (model: IH-300595-05-0005, miRIDIAN Hairpin Inhibitor, Human hsa-miR-125b MIMAT0000423/MI0000446 (hsa-miR-125b), Dharmacon, Inc.; Example 2) was transfected into the melanoma cell line WM115 using liposome and allowed to move into the cells. […] After transfection, the cells were cultured in a 5% CO2 incubator at 37° C. for about 60 hours, and then RNA was isolated from the cells using 1 ml of Trizol reagent. Specifically, the cells were lysed using Trizol, and then centrifuged to remove the supernatant, and 0.35 ml of isopropanol was added to the residue to form nucleic acid pellets, which were then washed with 70% EtOH and dissolved in water to isolate RNA. About 1 ug of the RNA was made into cDNA using oligo dT and reverse transcriptase, and the cDNA was subjected to real-time PCR according to the TaqMan method (Applied Biosystems) using a primer (assay ID: Hs01099965_m1) specific to tyrosinase mRNA under the following conditions: reaction at 95° C. for 10 min; and then about 45 cycles of 10 sec at 95° C. and 1 min at 60° C. […]
On the technique in general: Quantitative PCR measures a nucleic acid by following its amplification.

With “Example 2: miRIDIAN Hairpin Inhibitor, Human hsa-miR-125b (IH-300595-05-0005, Dharmacon); oligonucleotide with sequence complementary to miR-125b”, the “expression level of tyrosinase mRNA (normalized to GAPDH)” value is listed as “significantly increased”.
